Molecules are shown by their SMILES. Read-outs that look alike come from different tables or passages of the source.

Series [1] is described as follows: Excretion study in rat urine, feces and bile after oral N. incisum extract. It is filed as in vivo, Sprague–Dawley rats. The note with it: 0–72 h, oral 4.2 g kg^−1 N. incisum extract; for cumulative excretion in feces: rat feces; for cumulative excretion in urine: rat urine. The text has this: Sixteen male Sprague–Dawley (SD) rats (200 ± 20 g) were divided into two groups (group 1 were for collecting urine and fecal samples in metabolic cages while group 2 were for collecting bile samples from the bile duct using polyethylene tubes). For group 1, the rats were orally given N. incisum extract dissolved in 0.5% CMC-Na at a dosage of 4.2 g kg^−1 and placed in metabolic cages enabling collection of urine and fecal samples separately. The urine and fecal samples were collected at time intervals of 0–4, 4–8, 8–12, 12–24, 24–36, 36–48, 48–60, and 60–72 h. For group 2, the rats were anaesthetized with chloral hydrate at a dose of 0.3 g kg^−1 administered intraperitoneally. A polyethene tube was used in cannulating the bile duct ensuring continuous flow of bile. The rats were then administered the extract at a dose of 4.2 g kg^−1 and the bile samples were then collected at different time intervals (0-1, 1-2, 2-3, 3-4, 4-5, 5-6, 6-7, 7-8, and 8-9 h). After the volumes of urine and bile obtained were measured, these samples were stored at −20°C until analysis. The preparation of the urine and bile samples were the same as the plasma sample preparation described above. On the other hand, the fecal samples after collection were dried out in a drying oven at 40°C. After measuring the weights of the fecal samples, they were crushed by a mortar to achieve a uniform powder; 0.1 g of powdered feces was measured and 1 mL methanol was added in 1.5 mL polythene tubes, mixed sufficiently for 3 min, and extracted ultrasonically for 30 min. They were then centrifuged at 18000 ×g for 10 min. Supernatants were transferred into vials for analysis using HPLC-FLD.

Series [2] can be described thus: Stability of analytes in rat plasma (QC samples). Type of series: in vitro ADME. The conditions noted are these: n = 6; for Stability, Autosampler for 24 h, Mean: extracted rat plasma, autosampler 24 h; for Stability, Freeze-thaw cycles, Mean / Stability, At −80°C for 1 month, Mean: rat plasma; for Stability, Freeze-thaw cycles, Mean: three freeze/thaw cycles. The method, then:
Mixed quality control (QC) samples at high, medium, low, and LLOQ concentrations were made by spiking appropriate mixed standard solutions into blank rat plasma, giving plasma concentration ranges of 600, 60, 12, and 4 ng mL^−1 for bergapten, 6000, 600, 120, and 40 ng mL^−1 for imperatorin, 600, 60, 12, and 4 ng mL^−1 for notopterol, and 300, 30, 6, and 2 ng mL^−1 for isoimperatorin, respectively, followed by the same sample preparation and extraction method described above.
The recovery was determined by comparing the observed peak area in extracted plasma samples to those of postprocessed spiked samples. […]

A short description of series [3]: Pharmacokinetic study in rats after oral administration of N. incisum extract (HPLC-FLD of plasma). It is filed as in vivo, Sprague–Dawley rats. How it is done: HPLC analysis was performed on an Agilent 1100 HPLC (Agilent Technologies, USA) equipped with a quaternary pump, a degasser, an autosampler, a column thermostat compartment, and a diode array detector (DAD). An Agilent fluorescence detector was coupled to the Agilent system. Separation was carried out with a Hedera ODS column (4.6 mm × 250 mm, 5 μm) by gradient elution at a temperature of 40°C. Excitation and emission of the fluorescence detector were set to 300 nm and 490 nm, respectively. The analysis involved a constant flow rate of 1.0 mL min^−1 and an injection volume of 30 μL. The mobile phase comprised of (A) aqueous formic acid (0.1%, v/v) and (B) acetonitrile after degassing through ultrasonication using a gradient elution of 15–30% B at 0 to 10 min, 30–42% B at 10 to 20 min, 42% B at 20 to 65 min, 42–80% B at 65–70 min, and 80–90% at 70–75 min. The reequilibration time of gradient elution was 10 min. Owing to the similarity in polarity of imperatorin and notopterol, it was essential to maintain 42% of acetonitrile for 45 min to ensure that the two compounds were well separated.
To a 100 μL aliquot of plasma sample, 10 μL IS solution was added. Samples were vortex-mixed for 2 min, extracted with 1000 μL ethyl acetate, and then centrifuged for 10 min at 18000 ×g. Supernatant was transferred into another centrifuge tube and evaporated to dryness using nitrogen gas. The dried residue was reconstituted by adding 100 μL methanol. The solution was shaken and ultrasonicated for 2 min. It was then centrifuged at 18000 ×g for 10 min. A 30 μL of the solution was run with the HPLC and analysis was performed.
The PK study was carried out in accordance with the guidelines for the care and use of laboratory animals and approved by the Animal Ethics Committee of Tianjin University of Traditional Chinese Medicine. Eight male Sprague–Dawley rats weighing 180–220 g were kept at the animal center of Tianjin University of Traditional Chinese Medicine (Tianjin, China) with controlled conditions (temperature at 25 ± 2°C and relative humidity of 55 ± 5%). They were allowed free access to food and water and acclimatized for 7 days until 12 h before the experiment. According to the clinical dose used in human for each day, the rats were administered an oral dose of 4.2 g kg^−1 N. incisum extract suspended in 0.5% carboxymethylcellulose sodium salt aqueous solution (CMC-Na) and an amount of blood sample (200 μL) was collected at time 0, 0.083, 0.167, 0.25, 0.5, 0.75, 1, 1.5, 2, 3, 4, 6, 8, 12, and 24 h into heparin-pretreated tubes from the fossa orbitalis of each rat after oral administration of the extract. Blood plasma was immediately obtained by centrifuging the collected blood at 3300 ×g for 10 min and storing at −20°C until analysis.
The DAS software (Drug and Statistics 1.0, Medical College of Wannan, China), a computer program, was used in calculating the pharmacokinetic parameters after administering N. incisum extract. Bergapten, imperatorin, and isoimperatorin where analyzed using a one-compartment analysis while notopterol was processed using a two-compartment analysis based on Akaike's information criterion (AIC) estimation.

[4] abbreviates: high QC (600, 6000, 600, 300 ng mL^−1).
The mark [5] stands for this setting: low QC (12, 120, 12, 6 ng mL^−1).
Where [6] appears, read: medium QC (60, 600, 60, 30 ng mL^−1).
Setting [7] is: male, Sprague-Dawley, rat, plasma, po, 4.2 g/kg, rat plasma, oral 4.2 g kg^−1 N. incisum extract, n = 8, mean ± SD, read-out: T 1/2 (converted).
Where [8] appears, read: male, Sprague-Dawley, rat, plasma, po, 4.2 g/kg, rat plasma, oral 4.2 g kg^−1 N. incisum extract, n = 8, mean ± SD, read-out: T max.
[9] abbreviates: male, Sprague-Dawley, rat plasma, oral 4.2 g kg^−1 N. incisum extract, n = 8, mean ± SD, read-out: AUC0–∞.
Where [10] appears, read: male, Sprague-Dawley, rat plasma, oral 4.2 g kg^−1 N. incisum extract, n = 8, mean ± SD, read-out: C max.
[11] abbreviates: male, Sprague-Dawley, rat plasma, oral 4.2 g kg^−1 N. incisum extract, read-out: total drug exposure in rats in over 24 h, AUC0–24.
Setting [12] is: rat plasma, oral 4.2 g kg^−1 N. incisum extract, n = 8, mean ± SD.
Setting [13] is: male, Sprague-Dawley, rat, in vivo, po, 4.2 g/kg.

In the case of `COc1c2ccoc2cc2oc(=O)ccc12` [Bergapten, bergapten], the “cumulative excretion in feces” value in series [1] is reported as “about 80%”. Moreover, in series [2] (LLOQ QC (4, 40, 4, 2 ng mL^−1)), the “Stability, Autosampler for 24 h, Mean” value is listed as 100%; the “Stability, Freeze-thaw cycles, Mean” value stood at 106%; the “Stability, At −80°C for 1 month, Mean” value was found to be 80.5%. Besides, in series [2] (setting [4]), the “Stability, Autosampler for 24 h, Mean” value amounted to 88.9%; the “Stability, Freeze-thaw cycles, Mean” value turned out to be 85.1%; the “Stability, At −80°C for 1 month, Mean” value amounted to 112%. For the same compound, in series [2] (setting [5]), the “Stability, Autosampler for 24 h, Mean” value is listed as 101%; the “Stability, Freeze-thaw cycles, Mean” value is 91.1%; the “Stability, At −80°C for 1 month, Mean” value was 91.1%. In addition, in series [2] (setting [6]), the “Stability, Autosampler for 24 h, Mean” value was found to be 115%; the “Stability, Freeze-thaw cycles, Mean” value was 83.6%; the “Stability, At −80°C for 1 month, Mean” value is on record as 104%. In addition, in series [3] (setting [7]), the half-life is 720 min. In addition, the Tmax in series [3] (setting [8]) is about 3 h. For the same compound, the AUC(0-inf) in series [3] (setting [9]) worked out at 1960 ± 2490 ng·h/mL. Also, the Cmax in series [3] (setting [10]) worked out at 184 ± 171 ng/mL. Further, the AUC(0-t) in series [3] (setting [11]) came out at 1640 ± 2490 ng·h/mL. Besides, in series [3] (setting [12]), the “T 1/2” value was found to be 12.8 ± 22.2 h and the T max came out at 3.06 ± 3.71 h.

As for `CC(C)=CCOc1c2occc2cc2ccc(=O)oc12` [Imperatorin, imperatorin], in series [3] (setting [13]), the AUC(0-inf) stood at 13900 ± 13900 ng·h/mL, the AUC(0-t) came out at 11000 ± 12000 ng·h/mL, the Cmax stood at 1670 ± 1500 ng/mL and the “T 1/2” value is reported as 4.99 ± 3.02 h. This compound had a T max in series [3] (setting [13]) of 1.65 ± 1.80 h. In series [3] (male, Sprague-Dawley, rat, in vivo, po, 4.2 g/kg, T 1/2), this compound displayed a half-life of at most 360 min. In addition, the Tmax in series [3] (male, Sprague-Dawley, rat, in vivo, po, 4.2 g/kg, T max) was under 2 h.

Take `CC(C)=CCOc1c2ccoc2cc2oc(=O)ccc12` [Isoimperatorin, isoimperatorin]: in series [1], the “cumulative excretion in feces” value is listed as 7.7284 + 2.2114% and the “cumulative excretion in urine” value is 0.0084 + 0.0016%. The half-life in series [3] (setting [7]) is at most 360 min. In addition, the Tmax in series [3] (setting [8]) was under 2 h. The AUC(0-inf) in series [3] (setting [9]) came out at 2120 ± 2870 ng·h/mL. Moreover, the Cmax in series [3] (setting [10]) worked out at 145 ± 75.9 ng/mL. In series [3] (setting [11]), the AUC(0-t) amounted to 830 ± 762 ng·h/mL. In addition, in series [3] (setting [12]), the “T 1/2” value is recorded as 5.62 ± 4.06 h and the T max came to 1.59 ± 0.97 h.

As to `CC(C)=CC(O)C/C(C)=C/COc1c2ccoc2cc2oc(=O)ccc12` (stereo not shown) [Notopterol, notopterol], in series [1], the “cumulative excretion in feces” value is 54.1083 + 4.4359% and the “cumulative excretion in urine” value was 0.1171 + 0.0096%. In series [3] (setting [7]), the half-life was at most 360 min. Further, the AUC(0-inf) in series [3] (setting [9]) was found to be 296 ± 242 ng·h/mL. The Cmax in series [3] (setting [10]) came out at 23.3 ± 6.87 ng/mL. Besides, in series [3] (setting [11]), the AUC(0-t) came out at 102 ± 34.8 ng·h/mL. Also, in series [3] (setting [12]), the “T 1/2” value came out at 3.18 ± 3.44 h and the T max amounted to 0.45 ± 0.35 h. Besides, the T max entry in series [3] (rat plasma, oral 4.2 g kg^−1 N. incisum extract, n = 8, mean ± SD, listed as notopterol) is reported as “below 2 h”.

For `COc1ccc2ccc(=O)oc2c1CC=C(C)C` [osthole, reference compound], in series [3] (after oral 4.2 g kg^−1 N. incisum extract), the “detection in rat plasma” value is on record as “not detected”.

Source of the values: publication PMC5220503, “Simultaneous Determination of Bergapten, Imperatorin, Notopterol, and Isoimperatorin in Rat Plasma by High Performance Liquid Chromatography with Fluorescence Detection and Its Application to Pharmacokinetic and Excretion Study after Oral Administration of Notopterygium incisum Extract” (International Journal of Analytical Chemistry, 2016).
